These results are taken from patent publication US12427146B2, “C-terminal SRC kinase inhibitors” (INVENTISBIO CO., LTD., priority 2018, dated 2025).

For one experiment, the target named is CSK protein (Homo sapiens (Human), UniProt P41240). In words: CSK Inhibition Assay. The class given is biochemical. How it is done: Test compound was dissolved in DMSO at 10 mM. 45 uL of compound was transferred into a 384-well compound source plate (LABCYTE cat #P-05525) and serially diluted at 1:3 ratio to create a 11-point dilutions. The same volume of DMSO was adopted as high control. 20 nL of these compounds DMSO dilutes were dispensed into a new 384-well assay plate by Echo 550. […] 15 uL of kinase assay buffer containing CSK protein and substrate was transferred to assay plate and incubated at RT for 30 minutes. Kinase assay buffer supplemented with substrate peptides was employed as low control to monitor the background. 4 μM of ATP was prepared in kinase assay buffer and 5 μL of ATP solution was added to each well to start the reaction. The assay plate was incubated at 25° C. for 90 minutes and the reaction was stopped by adding 40 μL of 0.5 M EDTA.
CSK protein, sequence (P41240 whole entry): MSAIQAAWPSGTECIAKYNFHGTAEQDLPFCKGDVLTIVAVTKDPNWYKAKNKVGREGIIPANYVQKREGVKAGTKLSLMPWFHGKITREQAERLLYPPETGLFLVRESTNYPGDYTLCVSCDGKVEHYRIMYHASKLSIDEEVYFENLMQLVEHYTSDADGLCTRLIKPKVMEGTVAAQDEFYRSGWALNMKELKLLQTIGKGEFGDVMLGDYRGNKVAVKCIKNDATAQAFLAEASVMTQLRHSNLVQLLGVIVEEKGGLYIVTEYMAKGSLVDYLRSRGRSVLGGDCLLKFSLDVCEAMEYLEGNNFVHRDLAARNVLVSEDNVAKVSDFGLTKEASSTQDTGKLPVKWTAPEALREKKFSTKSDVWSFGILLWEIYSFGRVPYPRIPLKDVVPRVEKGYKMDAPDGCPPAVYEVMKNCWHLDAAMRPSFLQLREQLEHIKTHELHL
(§1) Phosphorylated fluorescent-tagged peptides were differentiated from non-phosphorylated peptides by separating using Caliper EZ Reader II and the detection was directly converted to conversion ratio.
(§2) For estimation of IC50, the % substrate conversion values are transformed to % Inhibition Ratio by applying the following equation: […]

For the next experiment, the target named is LCK protein (Homo sapiens (Human), UniProt P06239). In words: LCK Inhibition Assay. Format: biochemical. The procedure:
Test compound was dissolved in DMSO at 10 mM. 45 uL of compound was transfer into a 384-well compound source plate (LABCYTE cat #P-05525) and serially diluted at 1:3 ratio to create a 11-point dilutions. The same volume of DMSO was adopted as high control. 20 nL of these compounds DMSO dilutes were dispensed into a new 384-well assay plate by Echo 550. LCK protein (0.50 nM, Cama Biosciences, cat #08-170), florescent labeled substrate FLPeptide4 (2 μM, PerkinElmer, cat #760348) was prepared in kinase assay buffer (50 mM HEPES (pH 7.5), 10 mM MgCl2, 0.01% Brij-35, 2 mM DTT and 0.005 mg/ml BSA). 15 uL of kinase assay buffer containing LCK protein and substrate was transferred to assay plate and incubate at RT for 30 minutes. Kinase assay buffer supplemented with substrate peptides was employed as low control to monitor the background. 400 μM ATP was prepared in kinase assay buffer and 5 μL of ATP solution was added to each well to start the reaction. The assay plate was incubated at 25° C. for 90 minutes and the reaction was stopped by adding 40 μL of 0.5 M EDTA.
as §1, §2

By IC50 is commonly meant the concentration at which inhibition is half-maximal.

LCK protein, sequence (P06239 whole entry): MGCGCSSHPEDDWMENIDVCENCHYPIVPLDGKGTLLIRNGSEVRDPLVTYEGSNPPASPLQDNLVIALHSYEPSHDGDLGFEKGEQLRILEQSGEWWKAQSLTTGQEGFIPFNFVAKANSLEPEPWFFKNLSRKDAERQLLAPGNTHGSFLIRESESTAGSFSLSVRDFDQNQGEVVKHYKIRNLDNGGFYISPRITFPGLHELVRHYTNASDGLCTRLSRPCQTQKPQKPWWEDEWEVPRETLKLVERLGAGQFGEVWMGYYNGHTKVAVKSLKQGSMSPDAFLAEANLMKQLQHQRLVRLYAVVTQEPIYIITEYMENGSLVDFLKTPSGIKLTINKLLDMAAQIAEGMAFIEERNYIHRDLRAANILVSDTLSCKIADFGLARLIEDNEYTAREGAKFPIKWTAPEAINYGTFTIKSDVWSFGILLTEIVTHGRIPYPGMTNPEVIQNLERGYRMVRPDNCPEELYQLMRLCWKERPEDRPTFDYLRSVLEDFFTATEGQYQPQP

With `Cc1ncc(-c2nc(-c3cccc(NS(=O)(=O)c4c(Cl)cccc4Cl)c3F)c(-c3ccnc(NC4CC4)n3)s2)cn1` [Compound 149], the IC50 is 4.5 nM on CSK protein and more than 1000 nM against LCK protein.
As for `CNc1nccc(-c2sc(-c3ccc(F)cn3)nc2-c2cccc(NS(=O)(=O)c3c(F)cc(F)cc3F)c2F)n1` [Compound 77], the IC50 on CSK protein is 85.5 nM; against LCK protein, more than 1000 nM.
For `CNc1nccc(-c2sc(N(C)C)nc2-c2cccc(NS(=O)(=O)c3c(F)cccc3F)c2F)n1` [Compound 157] the same measures were 25.8 nM and more than 1000 nM.
`CNC(=O)N[C@@H](C)CNc1nccc(-c2sc(-c3ccccc3)nc2-c2cccc(NS(=O)(=O)c3c(F)cccc3F)c2F)n1` [compound 45]: the IC50 against CSK protein is 41.3 nM; against LCK protein, more than 1000 nM.
In the same order, the values of `CNc1nccc(-c2c(-c3cccc(NS(=O)(=O)c4c(F)cccc4F)c3F)nc3cc(OC)ccn23)n1` [Compound 98] are 78.3 nM and more than 1000 nM.
Turning to `CNc1nccc(-c2c(-c3cccc(NS(=O)(=O)c4c(F)ccc(C)c4F)c3F)nc3c(F)cccn23)n1` [Compound 102], the IC50 on CSK protein is 96.5 nM; on LCK protein, more than 1000 nM.
Regarding `Nc1nccc(-c2sc(-c3ccc(F)cc3)nc2-c2cccc(NS(=O)(=O)c3c(F)cccc3F)c2F)n1` [Compound 14], the IC50 was 55.3 nM on CSK protein and more than 1000 nM against LCK protein.
For `CNc1nccc(-c2c(-c3cccc(NS(=O)(=O)c4c(F)ccc(C)c4F)c3F)nc3cc(OC)ccn23)n1` [Compound 103] the same measures were 51.8 nM and more than 1000 nM.
For `CNc1nccc(-c2sc(NCC(F)(F)F)nc2-c2cccc(NS(=O)(=O)c3c(F)cccc3F)c2F)n1` [Compound 165] the same measures were 9.9 nM and 100 to 1000 nM.
For `CNc1nccc(-c2c(-c3cccc(NS(=O)(=O)c4c(F)ccc(C)c4F)c3F)nc3cc(F)ccn23)n1` [Compound 107] the same measures were 113 nM and more than 1000 nM.
`Nc1nccc(-c2sc(-c3ccccc3)nc2-c2cccc(NS(=O)(=O)c3c(F)cccc3F)c2)n1` [Compound 18]: the IC50 on CSK protein is 144 nM; against LCK protein it was more than 1000 nM.
For `Cc1ccc(Cl)c(S(=O)(=O)Nc2cccc(-c3nc(-c4ccc(F)cn4)sc3-c3ccnc(N)n3)c2F)c1Cl` [Compound 125] the same measures were 15.3 nM and more than 1000 nM.
In the same order, the values of `O=S(=O)(Nc1cccc(-c2nc(-c3cncc(F)c3)sc2-c2ccnc(NC3CC3)n2)c1F)c1c(F)cccc1F` [Compound 68] are 16.2 nM and more than 1000 nM.
Consider `Cc1ccc(-c2nc(-c3cccc(NS(=O)(=O)c4c(Cl)ccc(C)c4Cl)c3F)c(-c3ccnc(NC4CC4)n3)s2)nn1` [Compound 175], for which the figures for the IC50 against CSK protein and against LCK protein were 6.5 nM and more than 1000 nM, respectively.
As to `Cc1ncc(-c2nc(-c3cccc(NS(=O)(=O)c4c(F)ccc(C)c4F)c3F)c(-c3ccnc(NC4CC4)n3)s2)cn1` [Compound 156], the IC50 was 9.3 nM against CSK protein and more than 1000 nM at LCK protein.
`COc1ccc(F)c(S(=O)(=O)Nc2cccc(-c3nc(-c4cncc(F)c4)sc3-c3ccnc(N)n3)c2F)c1F` [compound 50]: the IC50 on CSK protein is 76.3 nM; against LCK protein, more than 1000 nM.
In the same order, the values of `CCOc1ncc(-c2nc(-c3cccc(NS(=O)(=O)c4c(F)cccc4F)c3F)c(-c3ccnc(N)n3)s2)cn1` [compound 7] are 306 nM and more than 1000 nM.
Consider `Cc1ccc(Cl)c(S(=O)(=O)Nc2cccc(-c3nc(-c4ccc(F)cn4)sc3-c3ccnc(NCCO)n3)c2F)c1Cl` [Compound 136], for which the IC50 is 108 nM on CSK protein and more than 1000 nM against LCK protein.
For the molecule `CNc1nccc(-c2sc(-c3cnc(C)nc3)nc2-c2cccc(NS(=O)(=O)c3c(F)ccc(C)c3F)c2F)n1` [Compound 69], the IC50 on CSK protein was 13.4 nM; at LCK protein it was more than 1000 nM.
As to `Nc1nccc(-c2c(-c3cccc(NS(=O)(=O)c4c(F)cccc4F)c3F)nc3ccccn23)n1` [compound 90], the IC50 against CSK protein is 77 nM; on LCK protein it was more than 1000 nM.
On to `CNc1nccc(-c2sc(-c3cncnc3)nc2-c2cccc(NS(=O)(=O)c3c(F)cccc3F)c2F)n1` [Compound 63], for which the IC50 was 20.6 nM against CSK protein and more than 1000 nM against LCK protein.
Take `COc1cc(NS(=O)(=O)c2c(F)cccc2F)cc(-c2nc(-c3ccccc3)sc2-c2ccnc(N)n2)c1` [Compound 19]: the IC50 is 28.2 nM against CSK protein and 100 to 1000 nM against LCK protein.
For `Cc1ccc(Cl)c(S(=O)(=O)Nc2cccc(-c3nc(-c4cncc(F)c4)sc3-c3ccnc(N)n3)c2F)c1Cl` [Compound 61] the same measures were 12.6 nM and more than 1000 nM.
Turning to `Nc1nccc(-c2c(-c3cccc(NS(=O)(=O)c4c(F)cccc4F)c3F)nc(-c3ccccc3)n2O)n1` [Compound 84], the IC50 against CSK protein was 133 nM; against LCK protein, more than 1000 nM.
Regarding `Cc1cc(F)c(S(=O)(=O)Nc2cccc(-c3nc(-c4ccccc4)sc3-c3ccnc(N)n3)c2F)c(F)c1` [Compound 35], the IC50 at CSK protein is 81.2 nM; against LCK protein, more than 1000 nM.
For `Nc1nccc(-c2sc(-c3cncc(F)c3)nc2-c2cccc(NS(=O)(=O)c3c(F)cccc3F)c2F)n1` [Compound 17] the same measures were 25 nM and more than 1000 nM.
For `CN(C)c1nc(-c2cccc(NS(=O)(=O)c3c(F)ccc(Cl)c3F)c2F)c(-c2ccnc(NC3CC3)n2)s1` [Compound 187] the same measures were 7.3 nM and more than 1000 nM.
Regarding `Nc1nccc(-c2sc(-c3ccccc3)nc2-c2cccc(NS(=O)(=O)c3ccccc3)c2F)n1` [Compound 24], the IC50 on CSK protein is 501 nM; on LCK protein, more than 1000 nM.
Take `Cc1ncc(-c2nc(-c3cccc(NS(=O)(=O)c4c(Cl)ccc(C)c4Cl)c3F)c(-c3ccnc(NC4CC4)n3)s2)cn1` [Compound 151]: the values for the IC50 at CSK protein and against LCK protein were 4.8 nM and more than 1000 nM, respectively.
With `O=S(=O)(Nc1cccc(-c2nc(-c3ccccc3)sc2-c2ccnc(Nc3ccc(N4CCOCC4)nc3)n2)c1F)c1c(F)cccc1F` [compound 3], the IC50 at CSK protein was 13.4 nM; against LCK protein, less than 100 nM.
In the case of `Cc1ccc(Cl)c(S(=O)(=O)Nc2cccc(-c3nc(N4CCCCC4)sc3-c3ccnc(NC4CC4)n3)c2F)c1Cl` [Compound 179], the IC50 against CSK protein was 6.2 nM; on LCK protein it was more than 1000 nM.
In the same order, the values of `CNc1nccc(-c2sc(-c3cnc(C)nc3)nc2-c2cccc(NS(=O)(=O)c3c(Cl)ccc(C)c3Cl)c2F)n1` [Compound 143] are 3.6 nM and more than 1000 nM.
In the case of `CNc1nccc(-c2sc(NC)nc2-c2cccc(NS(=O)(=O)c3c(F)cccc3F)c2F)n1` [Compound 114], the IC50 against CSK protein was 18.5 nM; against LCK protein it was 100 to 1000 nM.
In the case of `CNc1nccc(-c2sc(-c3ccccc3)nc2-c2cccc(NS(=O)(=O)c3c(F)ccc(C)c3F)c2F)n1` [Compound 51], the IC50 was 33.1 nM on CSK protein and more than 1000 nM on LCK protein.
For the molecule `Nc1nccc(-c2sc(-c3cncc(Cl)c3)nc2-c2cccc(NS(=O)(=O)c3c(F)cccc3F)c2F)n1` [Compound 11], the IC50 against CSK protein is 103 nM; against LCK protein, more than 1000 nM.
In the same order, the values of `Cc1ccc(F)c(S(=O)(=O)Nc2cccc(-c3nc(N4CCCCC4)sc3-c3ccnc(NC4CC4)n3)c2F)c1F` [Compound 176] are 10.2 nM and more than 1000 nM.
In the same order, the values of `Cc1ccnc(-c2nc(-c3cccc(NS(=O)(=O)c4c(F)cccc4F)c3F)c(-c3ccnc(N)n3)s2)c1` [Compound 40] are 48 nM and more than 1000 nM.
In the same order, the values of `CC(=O)N[C@@H](C)CNc1nccc(-c2sc(-c3ccccc3)nc2-c2cccc(NS(=O)(=O)c3c(F)cccc3F)c2F)n1` [Compound 41] are 87.3 nM and more than 1000 nM.
For the molecule `CNc1nccc(-c2sc(-c3cncnc3)nc2-c2cccc(NS(=O)(=O)c3c(F)ccc(C)c3F)c2F)n1` [Compound 73], the IC50 on CSK protein was 14.8 nM; against LCK protein, more than 1000 nM.
For `COc1ccn2c(-c3ccnc(NCCO)n3)c(-c3cccc(NS(=O)(=O)c4c(Cl)cccc4Cl)c3F)nc2c1` [Compound 159] the same measures were 28.4 nM and more than 1000 nM.
For `C[C@H](Nc1nccc(-c2sc(-c3ccccc3)nc2-c2cccc(NS(=O)(=O)c3c(F)cccc3F)c2F)n1)C(N)=O` [Compound 44] the same measures were 43.9 nM and more than 1000 nM.
In the same order, the values of `Cc1ccc(-c2nc(-c3cccc(NS(=O)(=O)c4c(F)cccc4F)c3F)c(-c3ccnc(N)n3)s2)nn1` [Compound 13] are 51 nM and more than 1000 nM.
